# Measured values as given in PubChem BioAssay (NCI).
#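 Results reflect a 48-hour exposure of cells in 96-well plates to compound at five concentrations. TGI denotes the concentration required for complete inhibition of growth.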
# How the values were obtained:
# Assay in all cases: inhibition of tumour cell growth, NCI panel, 48 h
# HCT-116 colon = system: HCT-116 colon
# NCI-H23 lung = system: NCI-H23 lung
# KM12 colon = system: KM12 colon
# UACC-62 melanoma = system: UACC-62 melanoma
# OVCAR-4 ovarian = system: OVCAR-4 ovarian
# A549 NSCLC = system: A549 NSCLC
# NCI-H460 lung = system: NCI-H460 lung
# TK-10 renal = system: TK-10 renal
# A498 renal = system: A498 renal
# IGROV1 ovarian = system: IGROV1 ovarian
# UACC-257 melanoma = system: UACC-257 melanoma
# M14 melanoma = system: M14 melanoma
# MOLT-4 leukemia = system: MOLT-4 leukemia
# SK-MEL-28 melanoma = system: SK-MEL-28 melanoma
# MCF7 breast = system: MCF7 breast
# RXF 393 renal = system: RXF 393 renal
# HOP-92 NSCLC = system: HOP-92 NSCLC
# BT-549 breast = system: BT-549 breast
# MDA-N = system: MDA-N
# HS 578T breast = system: HS 578T breast
Compound,TGI (HCT-116 colon) [µM],TGI (NCI-H23 lung) [µM],TGI (KM12 colon) [µM],TGI (UACC-62 melanoma) [µM],TGI (OVCAR-4 ovarian) [µM],TGI (A549 NSCLC) [µM],TGI (NCI-H460 lung) [µM],TGI (TK-10 renal) [µM],TGI (A498 renal) [µM],TGI (IGROV1 ovarian) [µM],TGI (UACC-257 melanoma) [µM],TGI (M14 melanoma) [µM],TGI (MOLT-4 leukemia) [µM],TGI (SK-MEL-28 melanoma) [µM],TGI (MCF7 breast) [µM],TGI (RXF 393 renal) [µM],TGI (HOP-92 NSCLC) [µM],TGI (BT-549 breast) [µM],TGI (MDA-N) [µM],TGI (HS 578T breast) [µM]
COc1cc(C=O)c(-c2c(C=O)ccc3c2OCO3)c(OC)c1OC,> 100,> 100,> 100,> 100,> 100,> 100,> 100,> 100,> 100,> 100,> 100,> 100,> 100,> 100,–,–,–,–,–,–
Cc1c(N2C(=O)C(Cl)C2/C=C/c2ccccc2)c(=O)n(-c2ccccc2)n1C (stereo not drawn),34.8,32.8,29.5,31.2,84.6,86.9,> 100,37.4,–,42.8,33,36,50,–,87.5,79.3,50.2,> 100,40,–
COc1ccc2nc3cc(Cl)ccc3c(Sc3ccc([N+](=O)[O-])cc3C)c2c1,> 100,> 100,> 100,> 100,> 100,> 100,> 100,> 100,> 100,> 100,> 100,> 100,> 100,> 100,–,> 100,> 100,–,–,–
O=C(Nc1cccc(O)c1)C(=O)C1C(=O)NC(=S)NC1=O,> 100,> 100,–,> 100,> 100,> 100,–,–,> 100,> 100,> 100,> 100,> 100,> 100,–,> 100,> 100,–,–,–
CCCCCCNCCc1cnc[nH]1,> 100,> 100,> 100,> 100,> 100,> 100,> 100,–,> 100,> 100,> 100,> 100,> 100,> 100,> 100,> 100,> 100,–,–,> 100
CNC1(c2cc3ccccc3s2)CCCCC1,> 100,> 100,43.1,49,> 100,> 100,35.4,> 100,> 100,84.6,35.1,35.7,> 100,–,90.5,67.1,61.6,> 100,39.9,–
Nn1c(C23CC4CC(CC(C4)C2)C3)n[nH]c1=S,> 100,> 100,> 100,> 100,> 100,> 100,> 100,> 100,> 100,> 100,–,> 100,> 100,> 100,–,> 100,> 100,–,> 100,> 100
O=C1C2=Cc3ccccc3OC2(O)Oc2cc3ccccc3cc21 (stereo not drawn),> 100,> 100,> 100,> 100,> 100,> 100,> 100,> 100,> 100,> 100,> 100,> 100,> 100,> 100,> 100,> 100,> 100,> 100,> 100,–
O=C1COc2cc(NC(=S)Nc3ccccc3)ccc2N1,> 100,> 100,> 100,> 100,> 100,> 100,> 100,> 100,–,> 100,> 100,> 100,> 100,> 100,–,> 100,> 100,–,–,–
CC1(c2cccc(C3CC4(CCC3=O)OCCCCO4)c2)OCCO1 (stereo not drawn),> 100,> 100,> 100,> 100,> 100,> 100,> 100,> 100,> 100,> 100,> 100,> 100,> 100,> 100,–,–,–,–,–,–
CC(=O)c1ccc(NC(=O)/C(CC(=O)c2sc(-c3cccnc3)nc2C)=N/NC(N)=O)cc1,42.5,–,> 100,> 100,> 100,71.2,> 100,–,> 100,> 100,–,> 100,46,> 100,–,–,–,–,–,–
CCOC1C(Br)Cn2c(=O)c3cc4ccccc4cc3c(=O)n2C1C (stereo not drawn),> 100,> 100,> 100,–,> 100,> 100,> 100,> 100,78.7,> 100,> 100,> 100,94,> 100,–,> 100,> 100,–,–,–
COc1ccc(-c2c(C(C)=O)c(-c3ccccc3)n(C3OC(CO)C(O)C(O)C3O)c(=S)c2C#N)cc1 (stereo not drawn),> 100,> 100,> 100,> 100,> 100,> 100,> 100,> 100,> 100,> 100,> 100,> 100,> 100,> 100,> 100,> 100,–,–,> 100,–
OCC12C=CC(C1)c1ccccc12 (stereo not drawn),> 100,> 100,–,> 100,> 100,> 100,> 100,> 100,> 100,> 100,> 100,> 100,> 100,> 100,–,–,> 100,–,–,–
O=[N+]([O-])c1ccc(CSc2nncc3[nH]cnc23)cc1,> 100,> 100,> 100,> 100,> 100,> 100,–,> 100,> 100,> 100,> 100,> 100,> 100,> 100,> 100,–,67.1,> 100,> 100,–
C=CC[C@]1(/C=N/O)CN(S(=O)(=O)CC[Si](C)(C)C)C[C@H]2CC=CC[C@H]21,27.3,> 100,51.5,64.9,34.1,30.7,38.5,36.8,31.8,34.8,60.6,45,52.2,54.7,39.6,29.6,–,80.7,42.8,–
N#C/C(=C/c1cccc(Oc2ccccc2)c1)c1ccccc1,> 100,> 100,> 100,> 100,> 100,> 100,> 100,> 100,> 100,> 100,> 100,> 100,> 100,> 100,–,–,> 100,–,–,–
CC1(C)C2CCC1(C)C(N/C(Sc1ccccc1)=C(/C(Cl)=C(Cl)Cl)[N+](=O)[O-])C2 (stereo not drawn),28.8,27.6,18.8,21.3,29.8,45.9,32.7,–,28.2,–,27.4,25.9,> 100,24.9,24,–,–,28.8,27.6,–
CN(/N=C/c1ccc(C(=O)O)cc1)C1=NCCCCN1,> 100,> 100,> 100,> 100,> 100,> 100,> 100,–,> 100,> 100,> 100,> 100,> 100,> 100,> 100,–,–,> 100,> 100,–
C/C(=N\NS(=O)(=O)c1ccc(C)cc1)c1ccccn1,> 100,> 100,> 100,> 100,> 100,> 100,> 100,> 100,> 100,> 100,> 100,> 100,> 100,> 100,> 100,> 100,> 100,> 100,–,> 100
CCN1C[C@]2(C)CC[C@H](O)C34C1C(C[C@@H]32)[C@@]1(O)CC[C@H]2C[C@@H]4[C@@H]1[C@H]2O,> 100,> 100,> 100,> 100,> 100,> 100,> 100,> 100,–,> 100,> 100,> 100,> 100,> 100,–,> 100,> 100,–,–,–
O=c1[nH]c2cc(C(F)(F)F)ccc2nc1C(F)(F)F,> 100,94.2,71.2,> 100,> 100,> 100,> 100,> 100,> 100,> 100,90.6,> 100,> 100,> 100,> 100,58.2,45.2,> 100,> 100,–
O=C(NN1C(=O)C(Cl)C1c1ccc(Cl)cc1)c1c(Cl)c(Cl)c(Cl)c(Cl)c1-c1nc2ccccc2[nH]1 (stereo not drawn),44,69,> 100,33.9,–,> 100,46.4,–,63.6,45.8,> 100,74.9,> 100,78.7,34.4,17.9,51.4,77.8,–,> 100
CCC(CC)NC1=C(NC(C)=O)C(=O)c2ccccc2C1=O,> 50,> 50,> 50,> 50,> 50,> 50,> 50,> 50,–,> 50,> 50,> 50,> 50,> 50,–,> 50,> 50,–,–,–
CC1(C)OCN(c2ccc(N3CCOCC3)cc2)Cn2c1nc1ccccc12,> 100,> 100,> 100,> 100,> 100,> 100,> 100,> 100,> 100,> 100,> 100,> 100,> 100,> 100,–,> 100,> 100,–,–,–
Cc1cc(C)c2c(=O)cc(-c3cccc4ccccc34)[nH]c2n1,> 100,> 61.6,15.4,> 61.6,> 100,> 100,> 100,> 87.1,4.72,> 84.5,–,> 51.4,42.7,> 100,> 100,> 37.1,> 77.1,> 100,–,> 100
CCC1=CCN(c2cc(C)ccn2)OC1c1ccc(OC)cc1 (stereo not drawn),71.8,> 100,> 100,> 100,> 100,> 100,> 100,–,–,> 100,86.1,> 100,82.4,64.9,–,58.1,–,–,–,–
CNc1ncccc1Nc1cc(=O)n2c3cccnc3n(C)c2c1,> 100,> 100,> 100,> 100,> 100,> 100,> 100,> 100,> 100,> 100,> 100,> 100,> 100,> 100,> 100,80.8,–,> 100,> 100,–
